Experimental data taken from ChEMBL document CHEMBL1142226, “Impact of physicochemical and structural properties on the pharmacokinetics of a series of alpha1L-adrenoceptor antagonists” (Drug Metab Dispos, 2007).

Experiments:
[1] = Elimination half life in Beagle dog at 0.5 mg/kg, iv; assay type: ADME, organism-based, Canis lupus familiaris; set-up: dose 0.5 mg/kg, route intravenous; settings: in vivo
[2] = Fraction unbound in Beagle dog liver microsomes at 1 uM; assay type: ADME, Canis lupus familiaris, Microsome
[3] = Plasma clearance in Beagle dog at 0.5 mg/kg, iv; assay type: ADME, organism-based, Canis lupus familiaris; set-up: dose 0.5 mg/kg, route intravenous
[4] = Oral absorption in Beagle dog at 2 mg/kg, po; assay type: ADME, organism-based, Canis lupus familiaris; set-up: dose 2 mg/kg, route oral; settings: in vivo, read-out: Fabs
[5] = Volume of distribution in Beagle dog at 0.5 mg/kg, iv; assay type: ADME, organism-based, Canis lupus familiaris; set-up: dose 0.5 mg/kg, route intravenous; settings: in vivo
[6] = Dissociation constant, pKa of the compound; assay type: physicochemical
Liver = assay: Unbound intrinsic clearance in Beagle dog liver microsomes at 1 uM; assay type: ADME, Canis lupus familiaris, Microsome
Canis familiaris [7] = assay: Unbound plasma clearance in Beagle dog at 0.5 mg/kg, iv; assay type: ADME, organism-based, Canis lupus familiaris; set-up: dose 0.5 mg/kg, route intravenous; settings: in vivo
[8] = Fraction unbound in human liver microsomes at 1 uM; assay type: ADME, Microsome
[9] = Lipophilicity, log D in 0.1M potassium phosphate buffer at pH 7.4; assay type: physicochemical
[10] = Oral bioavailability in Beagle dog at 2 mg/kg; assay type: ADME, organism-based, Canis lupus familiaris; settings: in vivo
Canis familiaris [11] = assay: Unbound volume of distribution in Beagle dog at 0.5 mg/kg, iv; assay type: ADME, organism-based, Canis lupus familiaris; set-up: dose 0.5 mg/kg, route intravenous; settings: in vivo
[12] = Protein binding in Beagle dog plasma at 1 ug/ml; assay type: ADME, cell-free, Canis lupus familiaris; settings: read-out: PPB (converted)
[13] = Metabolic stability in Beagle dog liver microsomes assessed as half life at 1 uM; assay type: ADME, Canis lupus familiaris, Microsome
[14] = Metabolic stability in human liver microsomes assessed as half life at 1 uM; assay type: ADME, Microsome
Liver microsomes = assay: Unbound intrinsic clearance in human liver microsomes at 1 uM; assay type: ADME, Microsome
[15] = Plasma clearance in Sprague-Dawley rat at 0.5 mg/kg, iv; assay type: ADME, organism-based; set-up: dose 0.5 mg/kg, route intravenous
[16] = Oral bioavailability in Sprague-Dawley rat at 4 mg/kg; assay type: ADME, organism-based; settings: in vivo
Rattus norvegicus [17] = assay: Unbound volume of distribution in Sprague-Dawley rat at 0.5 mg/kg, iv; assay type: ADME, organism-based; set-up: dose 0.5 mg/kg, route intravenous; settings: in vivo
Homo sapiens = organism: Homo sapiens; assay: Protein binding in human plasma at 1 ug/ml; settings: read-out: PPB (converted)
[18] = Elimination half life in human at 0.86 mg/kg, po; assay type: ADME, organism-based; set-up: dose 0.86 mg/kg, route oral; settings: in vivo
[19] = Cmax in human at 0.86 mg/kg, po; assay type: ADME, organism-based; set-up: dose 0.86 mg/kg, route oral; settings: in vivo
[20] = Elimination half life in Sprague-Dawley rat at 0.5 mg/kg, iv; assay type: ADME, organism-based; set-up: dose 0.5 mg/kg, route intravenous; settings: in vivo
Rattus norvegicus [21] = assay: Unbound plasma clearance in Sprague-Dawley rat at 0.5 mg/kg, iv; assay type: ADME, organism-based; set-up: dose 0.5 mg/kg, route intravenous; settings: in vivo
[22] = Tmax in human at 0.86 mg/kg, po; assay type: ADME, organism-based; set-up: dose 0.86 mg/kg, route oral; settings: in vivo
[23] = Oral bioavailability in Beagle dog at 4 mg/kg; assay type: ADME, organism-based, Canis lupus familiaris; settings: in vivo
[24] = Cmax in Sprague-Dawley rat at 4 mg/kg, po; assay type: ADME, organism-based; set-up: dose 4 mg/kg, route oral; settings: in vivo
[25] = Oral absorption in Beagle dog at 4 mg/kg, po; assay type: ADME, organism-based, Canis lupus familiaris; set-up: dose 4 mg/kg, route oral; settings: in vivo, read-out: Fabs
[26] = Elimination half life in Sprague-Dawley rat at 4 mg/kg, po; assay type: ADME, organism-based; set-up: dose 4 mg/kg, route oral; settings: in vivo
[27] = Tmax in Sprague-Dawley rat at 4 mg/kg, po; assay type: ADME, organism-based; set-up: dose 4 mg/kg, route oral; settings: in vivo
[28] = Volume of distribution in Sprague-Dawley rat at 0.5 mg/kg, iv; assay type: ADME, organism-based; set-up: dose 0.5 mg/kg, route intravenous; settings: in vivo
[29] = Protein binding in Sprague-Dawley rat plasma at 1 ug/ml; assay type: ADME, cell-free; settings: read-out: PPB (converted)
[30] = Metabolic stability in Sprague-Dawley rat liver microsomes assessed as half life; assay type: ADME, Microsome
[31] = Metabolic stability in Sprague-Dawley rat bile assessed as drug remaining; assay type: ADME
[32] = Metabolic stability in Sprague-Dawley rat assessed as hepatic extraction ratio; assay type: ADME, tissue-based; settings: liver
Rattus norvegicus [33] = assay: Unbound volume of distribution in Sprague-Dawley rat at 3 mg/kg, iv; assay type: ADME, organism-based; set-up: dose 3 mg/kg, route intravenous; settings: in vivo
[34] = Elimination half life in Sprague-Dawley rat at 3 mg/kg, iv; assay type: ADME, organism-based; set-up: dose 3 mg/kg, route intravenous; settings: in vivo
[35] = Plasma clearance in Sprague-Dawley rat at 3 mg/kg, iv; assay type: ADME, organism-based; set-up: dose 3 mg/kg, route intravenous
Hepatocyte = assay: Drug uptake in Sprague-Dawley rat hepatocytes assessed per 10^6 cells; assay type: ADME, cell-based
Rattus norvegicus [36] = assay: Unbound plasma clearance in Sprague-Dawley rat at 3 mg/kg, iv; assay type: ADME, organism-based; set-up: dose 3 mg/kg, route intravenous; settings: in vivo
[37] = Drug uptake in Sprague-Dawley rat hepatocytes; assay type: ADME, cell-based, Hepatocyte
[38] = Volume of distribution in Sprague-Dawley rat at 3 mg/kg, iv; assay type: ADME, organism-based; set-up: dose 3 mg/kg, route intravenous; settings: in vivo
[39] = Plasma clearance in Beagle dog at 0.3 mg/kg, iv; assay type: ADME, organism-based, Canis lupus familiaris; set-up: dose 0.3 mg/kg, route intravenous
[40] = Cmax in Sprague-Dawley rat at 1 mg/kg, po; assay type: ADME, organism-based; set-up: dose 1 mg/kg, route oral; settings: in vivo
[41] = Elimination half life in human at 0.02 mg/kg, po; assay type: ADME, organism-based; set-up: dose 0.02 mg/kg, route oral; settings: in vivo
[42] = Volume of distribution in Beagle dog at 0.3 mg/kg, iv; assay type: ADME, organism-based, Canis lupus familiaris; set-up: dose 0.3 mg/kg, route intravenous; settings: in vivo
Canis familiaris [43] = assay: Unbound volume of distribution in Beagle dog at 0.3 mg/kg, iv; assay type: ADME, organism-based, Canis lupus familiaris; set-up: dose 0.3 mg/kg, route intravenous; settings: in vivo
[44] = Tmax in human at 0.02 mg/kg, po; assay type: ADME, organism-based; set-up: dose 0.02 mg/kg, route oral; settings: in vivo
[45] = Oral bioavailability in human at 0.25 to 1.5 mg/kg; assay type: ADME, organism-based; settings: in vivo
[46] = Oral bioavailability in Beagle dog at 0.6 mg/kg; assay type: ADME, organism-based, Canis lupus familiaris; settings: in vivo
[47] = Cmax in human at 0.02 mg/kg, po; assay type: ADME, organism-based; set-up: dose 0.02 mg/kg, route oral; settings: in vivo
[48] = Oral absorption in Beagle dog at 0.6 mg/kg, po; assay type: ADME, organism-based, Canis lupus familiaris; set-up: dose 0.6 mg/kg, route oral; settings: in vivo, read-out: Fabs
[49] = Tmax in Sprague-Dawley rat at 1 mg/kg, po; assay type: ADME, organism-based; set-up: dose 1 mg/kg, route oral; settings: in vivo
[50] = Oral bioavailability in Sprague-Dawley rat at 1 mg/kg; assay type: ADME, organism-based; settings: in vivo
[51] = Elimination half life in Sprague-Dawley rat at 1 mg/kg, po; assay type: ADME, organism-based; set-up: dose 1 mg/kg, route oral; settings: in vivo
[52] = Elimination half life in Beagle dog at 0.3 mg/kg, iv; assay type: ADME, organism-based, Canis lupus familiaris; set-up: dose 0.3 mg/kg, route intravenous; settings: in vivo

| SMILES | half-life [1] [h] | fraction unbound at 1 µM [2] | clearance [3] [mL/min/kg] | Fa [4] [%] | Vd [5] [L/kg] | pKa [6] | CL (Liver) [mL/min/kg] | CL (Canis familiaris [7]) [mL/min/kg] | fraction unbound at 1 µM [8] | logD [9] | bioavailability [10] [%] | Vd (Canis familiaris [11]) [L/kg] | fraction unbound at 1 ug/ml [12] | half-life at 1 µM [13] [h] | half-life at 1 µM [14] [h] | CL (Liver microsomes) [mL/min/kg] | clearance [15] [mL/min/kg] | Vd (Rattus norvegicus [17]) [L/kg] | fraction unbound at 1 ug/ml (Homo sapiens) | fraction unbound at 1 ug/ml [29] | other results |
| --- | --- | --- | --- | --- | --- | --- | --- | --- | --- | --- | --- | --- | --- | --- | --- | --- | --- | --- | --- | --- | --- |
| COc1cc2nc(N3CCCN(C(=O)N4CCOCC4)CC3)nc(N)c2cc1-c1ccccn1 | 2.3 | 0.791 | 23 | 65 | 4.3 | 6.6 | 162 | 200 | 0.637 | 2.1 | 35 | 20 | 0.22 | 0.233 | 0.0833 | 96 | – | – | – | – | – |
| COc1cc2nc(N3CCCN(C(=O)N4CC(O)C(O)C4)CC3)nc(Nc3ccccn3)c2cc1OC (centres undefined) | – | – | – | – | – | – | – | – | – | – | – | – | – | – | – | – | – | – | – | – | half-life [30]: > 2 h; Stability [31]: 100%; hepatic extraction ratio [32]: 0.7 |
| COc1cc2c(cc1OC)CN(c1nc(N3CCCN(C(=O)N4CC(O)C(O)C4)CC3)nc3cc(OC)c(OC)cc13)CC2 (centres undefined) | 2.4 | – | 47 | – | 10 | 6.2 | – | 470 | – | 4 | – | 100 | 0.1 | – | – | – | – | – | 0.03 | 0.05 | Vd (Rattus norvegicus [33]): 186 L/kg; half-life [34]: 1.4 h; half-life [30]: > 2 h; Stability [31]: 90%; clearance [35]: 135 mL/min/kg; Vmax (Hepatocyte): 481 pmol/min; hepatic extraction ratio [32]: 0.7; CL (Rattus norvegicus [36]): 2700 mL/min/kg; Km [37]: 6.5 µM; Vd [38]: 9.3 L/kg |
| COc1cc2nc(N3CCc4c(cccc4NS(C)(=O)=O)C3)nc(N)c2c(-c2ccccn2)c1OC [TAPRIZOSIN] | – | 0.602 | – | – | – | 6.7 | 83 | – | 0.564 | 3 | – | – | 0.21 | 0.5 | 0.683 | 13 | 22 | 24 | 0.07 | 0.07 | clearance [39]: 5.6 mL/min/kg; Cmax [40]: 105 ng/mL; half-life [41]: 11.4 h; Vd [42]: 4.4 L/kg; Vd (Canis familiaris [43]): 21 L/kg; Tmax [44]: 1.3 h; bioavailability [45]: 73%; bioavailability [46]: 79%; Cmax [47]: 7.5 ng/mL; Fa [48]: 89%; Tmax [49]: 0.5 h; bioavailability [50]: 42%; half-life [51]: 2.9 h; half-life [20]: 1 h; half-life [52]: 9.2 h; Vd [28]: 1.7 L/kg |

Second part, led by results:

| half-life [1] [h] | fraction unbound at 1 µM [2] | clearance [3] [mL/min/kg] | Fa [4] [%] | Vd [5] [L/kg] | pKa [6] | CL (Liver) [mL/min/kg] | CL (Canis familiaris [7]) [mL/min/kg] | fraction unbound at 1 µM [8] | logD [9] | bioavailability [10] [%] | Vd (Canis familiaris [11]) [L/kg] | fraction unbound at 1 ug/ml [12] | half-life at 1 µM [13] [h] | half-life at 1 µM [14] [h] | CL (Liver microsomes) [mL/min/kg] | clearance [15] [mL/min/kg] | Vd (Rattus norvegicus [17]) [L/kg] | fraction unbound at 1 ug/ml (Homo sapiens) | fraction unbound at 1 ug/ml [29] | SMILES | other results |
| --- | --- | --- | --- | --- | --- | --- | --- | --- | --- | --- | --- | --- | --- | --- | --- | --- | --- | --- | --- | --- | --- |
| 6.3 | 0.602 | 15 | – | 4.8 | 8.5 | 100 | 536 | 0.331 | 1.8 | – | 96 | 0.04 | 0.5 | 0.1 | 154 | 91 | 70 | 0.06 | 0.08 | COc1cc2nc(N3CCCN(C(=O)N4CCOCC4)CC3)cc(N)c2c(-c2ccc(F)cc2)c1OC | bioavailability [16]: 11%; half-life [18]: 12 h; Cmax [19]: 63 ng/mL; half-life [20]: 1 h; CL (Rattus norvegicus [21]): 61250 mL/min/kg; Tmax [22]: 0.7 h; bioavailability [23]: 71%; Cmax [24]: 14 ng/mL; Fa [25]: 100%; half-life [26]: 2.8 h; Tmax [27]: 4 h; Vd [28]: 5.6 L/kg |
| 1.6 | 0.939 | 20 | 100 | 2.2 | 6.9 | 41 | 60 | 1 | 1.5 | 63 | 4 | 0.56 | 0.767 | 0.15 | 34 | – | – | – | – | COc1cc2nc(N3CCCN(C(=O)N4CCOCC4)CC3)nc(N)c2c(-c2ccccn2)c1OC | – |
